Reference: BindingDB's records for patent US11111270 (Sanford Burnham Prebys Medical Discovery Institute, 2021)

Target: T1, E3 ubiquitin-protein ligase XIAP [163-230]/[26-93] (Homo sapiens, UniProt P98170+P98170)
T1 construct: 163-230; 26-93
Experiment: Biological Assay
Description: 5000 PPC-1 cells were plated and grown overnight. Compounds were plated and 4 hrs later, TRAIL was added to half of the plate while RPMI was added to the other half of the plate as a control. Plates were return to the incubator for 24 hrs. Plates were removed from the incubator and placed on the bench for 30 min and then 25 uL of Cell Titer Glo were added per well. Plates were placed on a rocker and then read on a luminometer. 5000 MDA-MB-231 cells were plated per well. Compound was added and 4 hrs later, TRAIL was added at 5 ng/mL; RPMI was added for a minus TRAIL control. Plates were incubated an additional 24 hrs, removed to the bench for 30 min, and then 25 uL of cell titer glo was added per well. Plates were placed on a rocker and read on a luminometer. Data were fit using PRISM.

T1 sequence (P98170 26-93): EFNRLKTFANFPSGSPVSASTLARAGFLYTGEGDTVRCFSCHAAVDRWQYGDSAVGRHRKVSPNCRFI
T1 sequence (P98170 163-230): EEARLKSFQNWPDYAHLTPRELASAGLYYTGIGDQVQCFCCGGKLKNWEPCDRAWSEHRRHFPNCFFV

In the case of `CN[C@@H](C)C(=O)N[C@H]1CCCNC2CCC(C(=O)N[C@@H]3CCCc4ccccc43)N2C1=O` (stereo partly specified) [US11111270, Compound 16], the Ki is reported as “in the range around 37.5 µM”.
